Assay results reported in the SangsterLogP compilation.

Experiment: method code SF-AS, from Yamada, T.; Tsukamoto, Y.; Shimamura, H.; Banno, S.; Sato, M. (1983). Pyridazinones 4. synthesis anti secretory and anti ulcer activities of urea derivatives. Eur J Med Chem, 18(3)209-214.

| SMILES | logP |
| --- | --- |
| CC(C)(C)NC(=O)NCCCCn1nc(-c2ccccc2)ccc1=O | 2.07 |
| CCN(CC)C(=O)NCCCCCCn1nc(-c2ccccc2)ccc1=O | 1.85 |
| CN(C)C(=O)NCCCCCCn1nc(-c2ccccc2)ccc1=O | 1.45 |
| CCNC(=O)NCCCCCCn1nc(-c2ccccc2)ccc1=O | 1.81 |
| Cc1ccc(S(=O)(=O)NC(=O)NCCCCn2nc(-c3ccccc3)ccc2=O)cc1 | 1.77 |
| NC(=O)NCCCn1nc(-c2ccccc2)ccc1=O | 0.69 |
| CCNC(=O)NCCCCn1nc(-c2ccccc2)ccc1=O | 1.83 |
| CN(C)C(=O)NCCCCCn1nc(-c2ccccc2)ccc1=O | 1.74 |
| NC(=O)NCCn1nc(-c2ccccc2)ccc1=O | 0.52 |
| CNC(=O)NCCn1nc(-c2ccccc2)ccc1=O | 0.39 |
| CNC(=O)NCCCn1nc(-c2ccccc2)ccc1=O | 1.16 |
| CNC(=O)NCCCCCn1nc(-c2ccccc2)ccc1=O | 1.26 |
| CCNC(=O)NCCCn1nc(-c2ccccc2)ccc1=O | 1.68 |
| CN(C)C(=O)NCCCn1nc(-c2ccccc2)ccc1=O | 1.61 |
| O=C(NCCCCCn1nc(-c2ccccc2)ccc1=O)NC1CCCCC1 | 2.03 |
| CC(C)NC(=O)NCCCCn1nc(-c2ccccc2)ccc1=O | 1.91 |

| SMILES | logP |
| --- | --- |
| CCN(CC)C(=O)NCCCn1nc(-c2ccccc2)ccc1=O | 1.72 |
| O=C(NCCCCn1nc(-c2ccccc2)ccc1=O)NC1CCCCC1 | 1.99 |
| CCNC(=O)NCCCCCn1nc(-c2ccccc2)ccc1=O | 1.76 |
| NC(=O)NCCCCCn1nc(-c2ccccc2)ccc1=O | 1.08 |
| O=C(NCCCCn1nc(-c2ccccc2)ccc1=O)Nc1ccccc1 | 2.32 |
| CNC(=O)NCCCCCCn1nc(-c2ccccc2)ccc1=O | 1.31 |
| CCN(CC)C(=O)NCCCCn1nc(-c2ccccc2)ccc1=O | 1.89 |
| CCCNC(=O)NCCCCn1nc(-c2ccccc2)ccc1=O | 1.71 |
| CN(C)C(=O)NCCCCn1nc(-c2ccccc2)ccc1=O | 1.58 |
| CNC(=O)NCCCCCCCn1nc(-c2ccccc2)ccc1=O | 1.06 |
| CNC(=O)NCCCCCCCCn1nc(-c2ccccc2)ccc1=O | 0.84 |
| CCCCNC(=O)NCCCCn1nc(-c2ccccc2)ccc1=O | 2.2 |
| NC(=O)NCCCCCCn1nc(-c2ccccc2)ccc1=O | 1.82 |
| CNC(=O)NCCCCn1nc(-c2ccccc2)ccc1=O | 1.23 |
| NC(=O)NCCCCn1nc(-c2ccccc2)ccc1=O | 1.21 |
